Converted amounts (≈) assume the structure as drawn.
Columns and labels:
Format in all cases: cell-based
[1] = tested on: clinically isolated carbapenem-resistant enterobacteriaceae; conditions: single drug; panel of 26 strains of Table 2
Method: (§1) The minimum inhibitory concentration (MIC) of the compound and combination with β-lactamase (MBLs) inhibitors against clinically isolated carbapenem-resistant enterobacteriaceae was determined by the two-fold agar dilution method to determine the activity of the compound to be tested against strains producing MBLs. […] The mother liquor was diluted to the concentration to be tested by double dilution method, an inoculum liquid was prepared by direct bacterial suspension method, 1 mL of the prepared bacteria solution was withdrawn and putted into the inoculation tube, and a positioning needle and an inoculation needle were installed. A bacterial multi-point inoculator was started for inoculation. After the bacterial solution was absorbed by the agar, the plate was placed upside down in an incubator at 37° C. for 16-20 hours, and the results were observed. The average of three tests was taken.

[2] = tested on: Klebsiella pneumonia ATCC BAA-1705 (KPC-2); experiment: MIC, micro-liquid dilution (CLSI); conditions: Klebsiella pneumoniae, ATCCBAA1705; K. pneumonia ATCC BAA-1705, Class A (KPC-2); 20-24 h, 37° C.
Method: (§2) Three strains of Klebsiella pneumonia, ATCC BAA-205 (TEM-1/SHV-1/SHV-12), ATCC BAA-1705 (KPC-2), ATCC BAA-2470 (NDM-1), Enterobacter cloacae ATCC BAA-1143 (AmpC), two strains of Escherichia coli ATCC BAA-2523 (OXA-48), ATCC 25922 were used to determine the minimum inhibitory concentration (MIC) of each of the compounds by micro-liquid dilution method according to the Institute of Clinical and Laboratory Standard (CLSI) requirements. […]. The plate was placed upside down at 37° C. and the MIC value was read after 20-24 h of incubation, and the lowest drug concentration that inhibited the growth of bacteria was set as MIC. Colony-Forming Units (CFU) refer to the total number of bacterial colonies per unit volume.

[3] = tested on: Enterobacter cloacae ATCC BAA-1143 (AmpC); experiment: MIC, micro-liquid dilution (CLSI); conditions: ATCCBAA1143, E. cloacae ATCC BAA-1143, Class C (AmpC), 20-24 h, 37° C.
Method: as §2

[4] = tested on: Klebsiella pneumonia ATCC BAA-2470 (NDM-1); experiment: MIC, micro-liquid dilution (CLSI); conditions: Klebsiella pneumoniae, ATCCBAA2470; K. pneumonia ATCC BAA-2470, Class B (NDM-1); 20-24 h, 37° C.
Method: as §2

[5] = tested on: Klebsiella pneumonia ATCC BAA-205 (TEM-1/SHV-1/SHV-12); experiment: MIC, micro-liquid dilution (CLSI); conditions: Klebsiella pneumoniae, ATCCBAA205; K. pneumonia ATCC BAA-205, Class A (TEM-1/SHV-1/SHV-12); 20-24 h, 37° C.
Method: as §2

[6] = tested on: Escherichia coli ATCC 25922; experiment: MIC, micro-liquid dilution (CLSI); conditions: ATCC25922, E. coli ATCC 25922, 20-24 h, 37° C.
Method: as §2

[7] = tested on: Escherichia coli ATCC BAA-2523 (OXA-48); experiment: MIC, micro-liquid dilution (CLSI); conditions: ATCCBAA2523
Method: as §2

K.p HX30 = experiment: MIC, two-fold agar dilution, clinical isolate; conditions: K.p HX30; single drug; average of three tests; read-out: MIC
Method: as §1

E.coli 115101 = experiment: MIC, two-fold agar dilution, clinical isolate; conditions: Escherichia coli; E.coli 115101; single drug; average of three tests; read-out: MIC
Method: as §1

E.coli 115105 = experiment: MIC, two-fold agar dilution, clinical isolate; conditions: Escherichia coli, single drug, average of three tests
Method: as §1

E.coli 020028 = experiment: MIC, two-fold agar dilution, clinical isolate; conditions: Escherichia coli, single drug, average of three tests
Method: (§3) The minimum inhibitory concentration (MIC) of the compound and combination with β-lactamase (MBLs) inhibitors against clinically isolated carbapenem-resistant enterobacteriaceae was determined by the two-fold agar dilution method to determine the activity of the compound to be tested against strains producing MBLs. Antibiotics and enzyme inhibitors were weighed separately and dissolved in sterile ultrapure water or dimethyl sulfoxide to prepare mother liquor, MHA medium was prepared, pH was adjusted to 7.2-7.4, and it was sterilized at 121° C. for 15 minutes and placed in a 55° C. water bath for heat preservation. The mother liquor was diluted to the concentration to be tested by double dilution method, an inoculum liquid was prepared by direct bacterial suspension method, 1 mL of the prepared bacteria solution was withdrawn and putted into the inoculation tube, and a positioning needle and an inoculation needle were installed. A bacterial multi-point inoculator was started for inoculation. After the bacterial solution was absorbed by the agar, the plate was placed upside down in an incubator at 37° C. for 16-20 hours, and the results were observed. The average of three tests was taken.

K.p CRE16 = experiment: MIC, two-fold agar dilution, clinical isolate; conditions: single drug, average of three tests
Method: as §3

E.coli BAA-2452 = experiment: MIC, two-fold agar dilution, clinical isolate; conditions: Escherichia coli, BAA2452
Method: as §3

[8] = tested on: Morganella morganii C1274; experiment: MIC, two-fold agar dilution, clinical isolate; conditions: Morganella morganii, C1274
Method: as §3

K.p BAA-2470 = experiment: MIC, two-fold agar dilution, clinical isolate
Method: as §3

E.coli CRE21 = experiment: MIC, two-fold agar dilution, clinical isolate; conditions: Escherichia coli; E.coli CRE21; single drug; average of three tests; read-out: MIC
Method: as §3

K.p CRE12 = experiment: MIC, two-fold agar dilution, clinical isolate; conditions: single drug, average of three tests
Method: as §3

K.p CRE11 = experiment: MIC, two-fold agar dilution, clinical isolate
Method: as §3

E.coli 020031 = experiment: MIC, two-fold agar dilution, clinical isolate; conditions: Escherichia coli, single drug, average of three tests
Method: as §3

E.coli CRE18 = experiment: MIC, two-fold agar dilution, clinical isolate; conditions: Escherichia coli; E.coli CRE18; single drug; average of three tests; read-out: MIC
Method: as §3

E.coli C1569 = experiment: MIC, two-fold agar dilution, clinical isolate; conditions: Escherichia coli, single drug, average of three tests
Method: as §3

K.p 13249 = experiment: MIC, two-fold agar dilution, clinical isolate; conditions: K.p 13249; single drug; average of three tests; read-out: MIC
Method: as §3

K.p 090339 = experiment: MIC, two-fold agar dilution, clinical isolate
Method: as §3

E.coli CRE28 = experiment: MIC, two-fold agar dilution, clinical isolate; conditions: Escherichia coli; E.coli CRE28; single drug; average of three tests; read-out: MIC
Method: as §3

Structure (SMILES): NC[C@@H]1CN(C[C@@H]2[C@H](NC(=O)/C(=N\OC3(C(=O)O)CC3)c3csc(N)n3)C(=O)N2S(=O)(=O)O)S(=O)(=O)N1 [Compound 4]
- MIC50 [1]: 0.125 µg/mL
- MIC90 [1]: 1 µg/mL
- MIC [2]: 1 µg/mL (≈ 1.72 µM)
- MIC [3]: 0.5 µg/mL (≈ 0.858 µM)
- MIC [4]: 0.25 µg/mL (≈ 0.429 µM)
- MIC [5]: 0.5 µg/mL (≈ 0.858 µM)
- MIC [6]: 0.25 µg/mL (≈ 0.429 µM)
- MIC [7]: 0.125 µg/mL (≈ 0.215 µM)
- MIC (K.p HX30): 0.5 µg/mL
- MIC (E.coli 115101): 0.5 µg/mL
- MIC (E.coli 115105): 1 µg/mL
- MIC (E.coli 020028): 0.03 µg/mL
- MIC (K.p CRE16): 0.06 µg/mL
- MIC (E.coli BAA-2452): 0.125 µg/mL
- MIC [8]: 0.125 µg/mL
- MIC (K.p BAA-2470): 0.125 µg/mL
- MIC (E.coli CRE21): 1 µg/mL
- MIC (K.p CRE12): 0.06 µg/mL
- MIC (K.p CRE11): 0.125 µg/mL
- MIC (E.coli 020031): 0.5 µg/mL
- MIC (E.coli CRE18): 1 µg/mL
- MIC (E.coli C1569): 1 µg/mL
- MIC (K.p 13249): 0.06 µg/mL
- MIC (K.p 090339): 0.125 µg/mL
- MIC (E.coli CRE28): 1 µg/mL

Reference: patent publication US12516049B2, “Sulfonylurea ring substituted monocyclic β-lactam antibiotics” (priority 2019, dated 2026)
